According to ChEMBL document CHEMBL3881526, “Selective androgen receptor modulators and method of use thereof” (2007):
Active and inactive are the calls of the source. No cut-off for these calls is given here.

Key:
Rattus norvegicus [1] = assay: Effect on lung weight in ORX Sprague-Dawley rat at 0.1 to 1 ug/day delivered at constant rate for 14 days via subcutaneous osmotic pumps; assay type: ADME, tissue-based; conditions: sc, 336 h
Rattus norvegicus [2] = assay: Androgenic activity in ORX Sprague-Dawley rat assessed as restoration of prostate weight at 0.1 to 1 ug/day delivered at constant rate for 14 days via subcutaneous osmotic pumps; assay type: functional
[3] = Toxicity in ORX Sprague-Dawley rat assessed as induction of toxicity signs at 0.1 to 1 ug/day delivered at constant rate for 14 days via subcutaneous osmotic pumps by visual examination test; conditions: in vivo, sc, 336 h
Rattus norvegicus [4] = assay: Effect on spleen weight in ORX Sprague-Dawley rat at 0.1 to 1 ug/day delivered at constant rate for 14 days via subcutaneous osmotic pumps; assay type: ADME, tissue-based; conditions: in vivo, sc, 336 h
Rattus norvegicus [5] = assay: Suppression of serum FSH in ORX Sprague-Dawley rat at =>0.3 mg/day delivered at constant rate for 14 days via subcutaneous osmotic pumps; assay type: functional
[6] = Toxicity in ORX Sprague-Dawley rat assessed as induction of toxicity signs at 0.1 to 1 ug/day delivered at constant rate for 14 days via subcutaneous osmotic pumps by diagnostic hematology test; conditions: in vivo, sc, 336 h
Rattus norvegicus [7] = assay: Effect on heart weight in ORX Sprague-Dawley rat at 0.1 to 1 ug/day delivered at constant rate for 14 days via subcutaneous osmotic pumps; assay type: ADME, tissue-based; conditions: in vivo, sc, 336 h
Rattus norvegicus [8] = assay: Anabolic activity in ORX Sprague-Dawley rat assessed as restoration of levator ani muscle weight at 0.1 to 1 ug/day delivered at constant rate for 14 days via subcutaneous osmotic pumps; assay type: functional
Rattus norvegicus [9] = assay: Androgenic activity in ORX Sprague-Dawley rat assessed as restoration of seminal vesicles weight at 0.1 to 1 ug/day delivered at constant rate for 14 days via subcutaneous osmotic pumps; assay type: functional

Q: Which Activity (Rattus norvegicus [1]) does the source give for `C[C@](O)(COc1ccc(F)cc1)C(=O)Nc1ccc([N+](=O)[O-])c(C(F)(F)F)c1` here?
A: Non-Toxic

Q: And the Activity (Rattus norvegicus [2])?
A: <40%

Q: What about the Activity [3] of the same compound?
A: Non-Toxic

Q: What about the Activity (Rattus norvegicus [4]) of the same compound?
A: Non-Toxic

Q: What about the Activity (Rattus norvegicus [5]) of the same compound?
A: Active

Q: And the Activity [6]?
A: Non-Toxic

Q: And the Activity (Rattus norvegicus [7])?
A: Non-Toxic

Q: And the Activity (Rattus norvegicus [8])?
A: Active

Q: What about the Activity (Rattus norvegicus [9]) of the same compound?
A: <40%
